Reference: publication PMC10382584, “Macrocyclization of linear molecules by deep learning to facilitate macrocyclic drug candidates discovery” (Nature Communications, 2023)

How the values were obtained:
Experiment in all cases: biochemical
Set-up in all cases: DiscoveRx KINOMEscan competition binding, percent of DMSO control signal at 100 nM
Conditions in all cases: read-out: Fig. 4a / Percent Control / Compound 1; percent of DMSO control, competition binding
ALK(C1156Y) = ALK(C1156Y) (Homo sapiens, UniProt Q9UM73, C1156Y)
ANKK1 = ANKK1 (Homo sapiens, UniProt Q8NFD2)
ANKK1, sequence (Q8NFD2 whole entry): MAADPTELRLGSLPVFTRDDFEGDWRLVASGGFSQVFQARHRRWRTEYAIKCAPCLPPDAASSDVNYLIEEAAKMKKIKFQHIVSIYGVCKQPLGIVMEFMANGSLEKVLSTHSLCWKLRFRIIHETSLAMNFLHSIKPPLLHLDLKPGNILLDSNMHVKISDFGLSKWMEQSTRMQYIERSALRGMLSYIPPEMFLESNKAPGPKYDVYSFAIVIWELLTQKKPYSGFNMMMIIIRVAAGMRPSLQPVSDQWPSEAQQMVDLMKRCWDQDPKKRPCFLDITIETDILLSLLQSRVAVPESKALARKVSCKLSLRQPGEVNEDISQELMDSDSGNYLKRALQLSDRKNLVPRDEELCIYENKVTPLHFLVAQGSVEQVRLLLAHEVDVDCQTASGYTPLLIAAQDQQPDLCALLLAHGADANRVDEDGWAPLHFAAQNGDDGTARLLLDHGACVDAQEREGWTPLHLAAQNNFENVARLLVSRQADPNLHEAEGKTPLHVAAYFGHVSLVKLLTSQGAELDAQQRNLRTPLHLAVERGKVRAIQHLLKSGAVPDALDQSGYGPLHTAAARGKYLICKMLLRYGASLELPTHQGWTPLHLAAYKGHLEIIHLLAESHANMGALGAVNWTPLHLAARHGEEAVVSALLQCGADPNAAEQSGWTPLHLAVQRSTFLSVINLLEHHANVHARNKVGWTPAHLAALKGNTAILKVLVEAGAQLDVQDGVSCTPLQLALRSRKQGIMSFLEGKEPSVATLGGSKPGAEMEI

DAPK3 = DAPK3 (Homo sapiens, UniProt O43293)
[1] = target: EGFR(L747-E749del, A750P) (Homo sapiens, UniProt P00533, A750P/DEL747-749)
EGFR(L858R) = EGFR(L858R) (Homo sapiens, UniProt P00533, L858R)
EPHA4 = EPHA4 (Homo sapiens, UniProt P54764)
EPHB3 = EPHB3 (Homo sapiens, UniProt P54753)
ERK3 = target: T1, ERK3 (Homo sapiens, UniProt Q16659)
T1 construct: gene MAPK6

GCN2(Kin.Dom.2,S808G) = target: T2, GCN2(Kin.Dom.2,S808G) (Homo sapiens, UniProt Q9P2K8, S808G)
T2 construct: gene EIF2AK4; Kin.Dom.2

HIPK4 = HIPK4 (Homo sapiens, UniProt Q8NE63)
JNK2 = target: T3, JNK2 (Homo sapiens, UniProt P45984)
T3 construct: gene MAPK9

KIT = KIT (Homo sapiens, UniProt P10721)
KIT, sequence (P10721 whole entry): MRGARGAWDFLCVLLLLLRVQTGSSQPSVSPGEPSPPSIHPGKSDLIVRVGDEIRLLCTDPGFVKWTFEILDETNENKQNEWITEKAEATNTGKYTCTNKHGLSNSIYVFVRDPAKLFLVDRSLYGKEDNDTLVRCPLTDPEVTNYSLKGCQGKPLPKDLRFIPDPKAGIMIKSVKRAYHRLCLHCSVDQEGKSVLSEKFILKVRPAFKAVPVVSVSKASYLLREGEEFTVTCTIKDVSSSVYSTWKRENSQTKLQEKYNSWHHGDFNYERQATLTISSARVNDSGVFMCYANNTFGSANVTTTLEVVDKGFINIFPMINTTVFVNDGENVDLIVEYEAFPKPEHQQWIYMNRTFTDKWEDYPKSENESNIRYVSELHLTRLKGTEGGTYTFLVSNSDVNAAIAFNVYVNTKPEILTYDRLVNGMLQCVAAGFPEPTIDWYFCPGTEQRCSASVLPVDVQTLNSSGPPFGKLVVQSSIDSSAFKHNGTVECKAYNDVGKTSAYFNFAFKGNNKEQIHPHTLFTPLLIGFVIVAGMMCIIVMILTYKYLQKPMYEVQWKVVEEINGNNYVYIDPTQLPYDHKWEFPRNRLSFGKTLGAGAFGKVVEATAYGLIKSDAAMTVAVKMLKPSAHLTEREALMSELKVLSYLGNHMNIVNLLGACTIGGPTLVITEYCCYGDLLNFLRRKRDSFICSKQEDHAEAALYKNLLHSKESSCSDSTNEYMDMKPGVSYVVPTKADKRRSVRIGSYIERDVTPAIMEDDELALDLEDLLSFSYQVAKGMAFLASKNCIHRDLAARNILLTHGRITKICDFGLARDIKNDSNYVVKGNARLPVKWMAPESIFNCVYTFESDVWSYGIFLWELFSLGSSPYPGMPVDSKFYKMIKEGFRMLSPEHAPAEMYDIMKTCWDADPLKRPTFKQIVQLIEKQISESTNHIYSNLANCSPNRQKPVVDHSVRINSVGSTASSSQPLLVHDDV

NEK1 = NEK1 (Homo sapiens, UniProt Q96PY6)
NEK3 = NEK3 (Homo sapiens, UniProt P51956)
NEK3, sequence (P51956 whole entry): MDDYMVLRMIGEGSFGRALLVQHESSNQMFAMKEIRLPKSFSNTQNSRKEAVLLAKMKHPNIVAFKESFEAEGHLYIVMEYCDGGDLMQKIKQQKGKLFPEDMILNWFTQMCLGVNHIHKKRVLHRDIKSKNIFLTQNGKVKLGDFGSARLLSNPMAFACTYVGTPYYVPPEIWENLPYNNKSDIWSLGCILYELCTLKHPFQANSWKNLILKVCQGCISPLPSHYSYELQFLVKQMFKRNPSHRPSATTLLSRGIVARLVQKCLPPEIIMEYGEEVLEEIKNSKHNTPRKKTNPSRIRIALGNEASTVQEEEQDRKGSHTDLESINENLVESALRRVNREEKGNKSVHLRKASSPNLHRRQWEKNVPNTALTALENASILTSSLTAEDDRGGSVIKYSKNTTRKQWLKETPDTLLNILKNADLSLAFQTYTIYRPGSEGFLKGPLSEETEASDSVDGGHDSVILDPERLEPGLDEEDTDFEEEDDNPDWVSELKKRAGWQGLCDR

PAK4 = PAK4 (Homo sapiens, UniProt O96013)
PHKG1 = PHKG1 (Homo sapiens, UniProt Q16816)
PIK3C2G = PIK3C2G (Homo sapiens, UniProt O75747)
PIK3C2G, sequence (O75747 whole entry): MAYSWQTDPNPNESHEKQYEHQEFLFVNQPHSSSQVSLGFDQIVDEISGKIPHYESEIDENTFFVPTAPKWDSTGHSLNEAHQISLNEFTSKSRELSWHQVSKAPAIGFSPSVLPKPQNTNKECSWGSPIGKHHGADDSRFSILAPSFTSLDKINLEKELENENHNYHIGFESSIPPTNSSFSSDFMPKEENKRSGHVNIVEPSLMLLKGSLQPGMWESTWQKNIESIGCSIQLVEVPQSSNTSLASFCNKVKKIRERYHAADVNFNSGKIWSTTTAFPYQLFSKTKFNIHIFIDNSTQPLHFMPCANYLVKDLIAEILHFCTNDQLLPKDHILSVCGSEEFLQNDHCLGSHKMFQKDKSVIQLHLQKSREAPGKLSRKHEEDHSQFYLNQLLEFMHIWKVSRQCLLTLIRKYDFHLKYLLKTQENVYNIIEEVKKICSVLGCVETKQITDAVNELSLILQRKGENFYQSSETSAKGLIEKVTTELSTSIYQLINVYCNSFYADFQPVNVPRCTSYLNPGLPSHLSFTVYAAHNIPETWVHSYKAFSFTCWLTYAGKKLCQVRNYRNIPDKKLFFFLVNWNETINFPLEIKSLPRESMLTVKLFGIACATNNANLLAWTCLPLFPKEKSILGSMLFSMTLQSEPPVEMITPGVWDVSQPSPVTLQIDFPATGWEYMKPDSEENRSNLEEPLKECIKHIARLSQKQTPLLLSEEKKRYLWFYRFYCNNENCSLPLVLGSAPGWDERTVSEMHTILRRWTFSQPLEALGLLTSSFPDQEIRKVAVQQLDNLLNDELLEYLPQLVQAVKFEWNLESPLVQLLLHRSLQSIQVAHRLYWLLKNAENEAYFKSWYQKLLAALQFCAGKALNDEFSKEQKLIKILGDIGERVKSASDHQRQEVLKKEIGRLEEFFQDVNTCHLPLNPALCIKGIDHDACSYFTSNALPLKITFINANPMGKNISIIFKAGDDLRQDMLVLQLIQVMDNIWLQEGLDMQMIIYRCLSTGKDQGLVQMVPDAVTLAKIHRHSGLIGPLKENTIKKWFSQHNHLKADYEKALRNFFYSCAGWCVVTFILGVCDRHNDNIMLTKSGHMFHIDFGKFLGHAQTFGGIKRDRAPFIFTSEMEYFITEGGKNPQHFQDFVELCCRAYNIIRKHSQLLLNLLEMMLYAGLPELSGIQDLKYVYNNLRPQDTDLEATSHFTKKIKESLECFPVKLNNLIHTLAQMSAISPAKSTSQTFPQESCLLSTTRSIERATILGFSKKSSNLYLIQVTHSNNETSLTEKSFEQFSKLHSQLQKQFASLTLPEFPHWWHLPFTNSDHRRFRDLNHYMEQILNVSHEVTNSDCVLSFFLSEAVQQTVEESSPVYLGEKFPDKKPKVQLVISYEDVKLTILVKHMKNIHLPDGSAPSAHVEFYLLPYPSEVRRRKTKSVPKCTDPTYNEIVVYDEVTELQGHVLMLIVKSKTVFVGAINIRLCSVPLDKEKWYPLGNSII

PIM2 = PIM2 (Homo sapiens, UniProt Q9P1W9)
PIP5K1A = PIP5K1A (Homo sapiens, UniProt Q99755)
RIOK2 = RIOK2 (Homo sapiens, UniProt Q9BVS4)
TNK2 = TNK2 (Homo sapiens, UniProt Q07912)
TXK = TXK (Homo sapiens, UniProt P42681)
WNK2 = WNK2 (Homo sapiens, UniProt Q9Y3S1)
YSK4 = target: T4, YSK4 (Homo sapiens, UniProt Q56UN5)
T4 construct: gene MAP3K19
T4 sequence (Q56UN5 whole entry): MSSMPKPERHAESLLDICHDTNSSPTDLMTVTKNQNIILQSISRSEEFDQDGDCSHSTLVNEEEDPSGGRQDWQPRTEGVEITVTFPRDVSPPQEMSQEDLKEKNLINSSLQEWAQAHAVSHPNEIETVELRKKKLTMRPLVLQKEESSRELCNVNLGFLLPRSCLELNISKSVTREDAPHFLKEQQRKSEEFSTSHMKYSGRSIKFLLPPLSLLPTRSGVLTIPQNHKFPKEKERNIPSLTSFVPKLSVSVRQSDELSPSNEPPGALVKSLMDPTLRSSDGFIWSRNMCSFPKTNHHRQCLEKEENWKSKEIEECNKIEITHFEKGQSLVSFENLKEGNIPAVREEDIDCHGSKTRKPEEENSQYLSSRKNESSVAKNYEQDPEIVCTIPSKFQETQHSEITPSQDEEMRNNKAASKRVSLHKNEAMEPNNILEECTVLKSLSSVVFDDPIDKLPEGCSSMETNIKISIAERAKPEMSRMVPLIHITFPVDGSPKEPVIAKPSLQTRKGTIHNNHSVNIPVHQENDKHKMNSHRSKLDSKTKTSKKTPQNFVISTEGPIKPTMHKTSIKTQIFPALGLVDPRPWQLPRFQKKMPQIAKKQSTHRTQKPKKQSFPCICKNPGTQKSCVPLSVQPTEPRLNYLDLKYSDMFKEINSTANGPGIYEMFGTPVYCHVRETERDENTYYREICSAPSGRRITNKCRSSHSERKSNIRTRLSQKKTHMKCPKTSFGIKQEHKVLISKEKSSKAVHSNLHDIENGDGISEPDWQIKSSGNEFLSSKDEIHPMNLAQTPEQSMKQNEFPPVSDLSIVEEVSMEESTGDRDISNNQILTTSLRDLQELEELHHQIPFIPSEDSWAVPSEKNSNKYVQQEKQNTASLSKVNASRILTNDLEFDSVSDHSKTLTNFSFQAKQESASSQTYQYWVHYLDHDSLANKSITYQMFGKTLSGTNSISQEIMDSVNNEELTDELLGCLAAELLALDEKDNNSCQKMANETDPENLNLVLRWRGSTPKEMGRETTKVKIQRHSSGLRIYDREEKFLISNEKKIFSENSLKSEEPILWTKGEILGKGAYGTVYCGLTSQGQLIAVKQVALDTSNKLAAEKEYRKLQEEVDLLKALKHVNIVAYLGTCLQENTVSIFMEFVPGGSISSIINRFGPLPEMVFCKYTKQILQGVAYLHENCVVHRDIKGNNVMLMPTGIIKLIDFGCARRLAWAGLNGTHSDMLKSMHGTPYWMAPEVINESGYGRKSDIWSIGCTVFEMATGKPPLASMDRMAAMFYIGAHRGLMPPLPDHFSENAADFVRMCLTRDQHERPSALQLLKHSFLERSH

p38-gamma = target: T5, p38-gamma (Homo sapiens, UniProt P53778)
T5 construct: gene MAPK12
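Also: KINOMEscan kinase panel binding assay, signal normalized between DMSO as 100% and a positive control compound as 0%.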

Cc1cnc2nc1Nc1cccc(c1)COCc1cc(ccc1OCCN1CCCC1)N2 [Compound 1] was tested, and the remaining binding at 0.1 µM (ALK(C1156Y)) was 40%, the remaining binding at 0.1 µM (ANKK1) was 86% and the remaining binding at 0.1 µM (DAPK3) was 94%. The remaining binding at 0.1 µM [1] was 88%, the remaining binding at 0.1 µM (EGFR(L858R)) was 73% and the remaining binding at 0.1 µM (EPHA4) was 100%. It also gave a remaining binding at 0.1 µM (EPHB3) of 100%, a remaining binding at 0.1 µM (ERK3) of 82% and a remaining binding at 0.1 µM (GCN2(Kin.Dom.2,S808G)) of 38%. For the same molecule, the remaining binding at 0.1 µM (HIPK4) was 79%, the remaining binding at 0.1 µM (JNK2) was 50% and the remaining binding at 0.1 µM (KIT) was 57%. It also gave a remaining binding at 0.1 µM (NEK1) of 100%, a remaining binding at 0.1 µM (NEK3) of 90% and a remaining binding at 0.1 µM (PAK4) of 100%. It also gave a remaining binding at 0.1 µM (PHKG1) of 87%, a remaining binding at 0.1 µM (PIK3C2G) of 80% and a remaining binding at 0.1 µM (PIM2) of 100%. The remaining binding at 0.1 µM (PIP5K1A) was 49%, the remaining binding at 0.1 µM (RIOK2) was 84% and the remaining binding at 0.1 µM (TNK2) was 86%. It also gave a remaining binding at 0.1 µM (TXK) of 94%, a remaining binding at 0.1 µM (WNK2) of 100% and a remaining binding at 0.1 µM (YSK4) of 11%. For the same molecule, the remaining binding at 0.1 µM (p38-gamma) was 100%.
